Reference: US20230263808A1 (UNIVERSITY OF FLORIDA RESEARCH FOUNDATION, INCORPORATED, priority 2020, published 2023)

Key:
C2C12 myotubes = test: Protein degradation: chymotrypsin-like proteasomal activity in C2C12 myotubes; format: cell-based, mouse
Procedure: A) C2C12 myotubes were assayed for chymotrypsin-like proteasomal activity. […] C) Quantitation of the ICW in panel B. D) ICW for surface expression of Glut4 on L6 myotubes. E) ICW for insulin-induced incorporation of puromycin into C2C12 myotube surface proteins. F-G) High-content imaging and analysis of C2C12 myoblasts stained with a Mitotracker dye. H) Assay reproducibility from screening 22 compounds on two separate occasions. The Pearson correlation coefficient, r, and its associated p-value is indicated.
C2C12 myocytes were used in all assays, except in the Glut4 translocation assay where L6 rat myocytes were used. ICW, In-Cell Western. Also see Methods.
To avoid such effects on myogenesis, we switched myoblasts to differentiation media, and then on day 4, added 10 μM cytarabine, a chemotherapy agent that kills dividing cells, and then adding GCs on day 6 or 7 and completing assays in day 8 (FIG. 8).
Physiologically, the effects of GCs on protein balance and Glut4 translocation vary in vivo depending upon the stressor. For example, GCs mediate atrophy in response to fasting but not exercise. […] To assess protein degradation, we measured chymotrypsin-like proteasomal activity (FIG. 2, A). The activating phosphorylation of AKT at Thr308 (pAKT) was measured using a LI-COR In-Cell Western assay (FIG. 2, B and C). The rate-limiting step in insulin-mediated glucose uptake is the translocation of the glucose transporter, Glut4, to the surface membrane, which we also measured by In-Cell Western without permeabilizing the myotubes (FIG. 2, D). Surface Sensing of Translation (SUnSET) (Schmidt et al., Nat Methods 6, 275-277, 2009) assay was used to measure protein synthesis by In-Cell Western, following treatment of myotubes with a low dose of puromycin, which incorporates into translating proteins, but at a low enough level to provide a readout for global protein synthesis (FIG. 2, E). […]

androgen receptor (AR) = target: T1, androgen receptor (AR) (Homo sapiens, UniProt P10275); test: AR-luciferase assay in 293T cells; format: cell-based
T1 construct: expressed in transfected cells; host or cells: 293T
T1 sequence (P10275 1-920): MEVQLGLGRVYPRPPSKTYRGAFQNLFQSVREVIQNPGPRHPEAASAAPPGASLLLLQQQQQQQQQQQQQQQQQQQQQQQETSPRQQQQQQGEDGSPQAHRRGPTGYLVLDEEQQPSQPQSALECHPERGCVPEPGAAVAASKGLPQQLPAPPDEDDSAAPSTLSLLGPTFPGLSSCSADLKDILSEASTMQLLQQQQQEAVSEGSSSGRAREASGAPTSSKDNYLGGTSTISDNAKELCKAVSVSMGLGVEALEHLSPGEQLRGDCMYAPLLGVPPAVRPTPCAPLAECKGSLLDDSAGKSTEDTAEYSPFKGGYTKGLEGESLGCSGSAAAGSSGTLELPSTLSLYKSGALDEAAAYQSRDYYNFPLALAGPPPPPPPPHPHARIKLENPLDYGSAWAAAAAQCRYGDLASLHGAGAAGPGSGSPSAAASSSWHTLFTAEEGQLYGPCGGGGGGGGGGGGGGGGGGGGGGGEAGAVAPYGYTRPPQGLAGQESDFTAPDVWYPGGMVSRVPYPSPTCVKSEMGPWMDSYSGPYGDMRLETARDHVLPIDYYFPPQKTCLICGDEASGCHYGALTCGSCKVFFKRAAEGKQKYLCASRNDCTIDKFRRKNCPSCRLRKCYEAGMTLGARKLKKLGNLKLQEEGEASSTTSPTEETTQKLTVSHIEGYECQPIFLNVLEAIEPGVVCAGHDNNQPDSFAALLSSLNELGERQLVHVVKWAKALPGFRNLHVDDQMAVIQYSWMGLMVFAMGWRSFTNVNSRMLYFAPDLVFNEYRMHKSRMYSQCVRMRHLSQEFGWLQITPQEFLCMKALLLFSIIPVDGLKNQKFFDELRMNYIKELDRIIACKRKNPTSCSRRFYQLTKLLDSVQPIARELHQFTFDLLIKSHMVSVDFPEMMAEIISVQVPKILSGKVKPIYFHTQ
Procedure: For native gene expression, C2C12 myotubes were treated compounds for 24 h. For MMTV-Luc assay, steroid-deprived 293T cells were co-transfected with a GR expression plasmid and an MMTV-driven luciferase reporter plasmid. The next day, cells were treated with compounds for 24 hrs. Each point represents the average of triplicate biological measurements for a separate compound. B) AR Luc assay development. Steroid-deprived 293T cells were transfected with AR expression plasmid and an ARR3-tk-driven luciferase reporter. The next day cells were treated with increasing doses of the indicated compounds. Data shown are mean+SD of triplicate measurements. C) AR-Luc assay identified 5 GCs with some AR activity.
For inclusion in the statistical analyses, assays were required to show high reproducibility, with a Pearson correlation >0.8 between different experiments (FIG. 2, H; FIG. 9, A). […] We also analyzed the effects of the compounds on expression of Fkbp5, Pdk4, and Klf15 mRNAs in C2C12 myotubes, and MMTV-luciferase and androgen receptor (AR) driven-luciferase activity in 293T cells. […] We also analyzed the effects of compounds on nuclear translocation of GR using a quantitative HTS approach (Htun et al., Proc. Natl. Acad. Sci. USA 93, 4845-4850, 1996). […]

Row | Compound | effect on protein degradation (proteasomal) (C2C12 myotubes) | AR activity (androgen receptor (AR))
1 | C=CCOC1CC2(C)C(CCC2(O)C#CC)C2CCc3cc(C(=O)Nc4cccnc4C)ccc3C12 (centres unmarked) [SR11466] | no effect | 
2 | CC#CC1(O)CCC2C3CCc4cc(C(=O)Nc5cccnc5C)ccc4C3C(OCc3ccc(Cl)cc3)CC21C (centres unmarked) [SR16025] |  | weak AR antagonist
